Assay results as given in patent publication US20170000805A1, “FOOD SUPPLEMENTATION COMPOSITION CONTAINING ONE OR MORE VITAMIN D3 COMPOUNDS AND ONE OR MORE MAGNESIUM SALTS” (DSM IP ASSETS B.V., priority 2006, published 2017).

Legend:
[1] = cited from earlier work
[2] = MgCl2 and Hy-D dosed into the rumen of fistulated cattle: urine pH, urine and blood plasma minerals; format: in vivo
Procedure: Four mature rumen fistulated cattle (approximately 600 kg […] in individual pens and offered 12 kg/day of good quality lucerne chaff throughout the experiment. After a 2 week adaptation to this diet the following treatments were applied daily over 2 weeks to each animal in a Latin Square Design: 1. no supplement (control) 2. […] 3. […]® 1.25% (5 mg 25-hydroxy vitamin D3) MgCl2 plus […]® 1.25 % Each treatment was dosed into the rumen through a cannula each morning during the 2 week experimental period. […] Urine pH was measured at time of collection; blood plasma was decanted after centrifugation and analyzed for calcium, magnesium, potassium, sodium and phosphorus by inductively coupled plasma atomic emission spectrophotometry. The results were analysed as a latin square design making comparisons between treatments after removal of any animal or period effects. The lucerne […] assayed for macro cations together with chloride and sulphur concentrations.

[3] = blood samples on days 7, 13 and 14
[4] = urine samples on days 12, 13 and 14

Compound	activity relative to 25-hydroxy vitamin D3 [1]	Blood Plasma composition Ca2+ [2, 3] [mg/L]	Blood Plasma composition K+ [2, 3] [mg/L]	Blood Plasma composition Mg2+ [2, 3] [mg/L]	Blood Plasma composition Na+ [2, 3] [mg/L]	Blood Plasma composition Phosphorus [2, 3] [mg/L]	Urine Composition Ca2+ [2, 4] [b mg/L]	Urine Composition K+ [2, 4] [mg/L]	Urine Composition Mg2+ [2, 4] [mg/L]	Urine Composition Na+ [2, 4] [mg/L]	Urine Composition Phosphorus [2, 4] [mg/L]	Urine pH ([2]; urine samples on days 12, 13 and 14, measured at time of collection) [b]
C=C1/C(=C\C=C2/CCC[C@]3(C)[C@@H]([C@H](C)CCCC(C)(C)O)CC[C@@H]23)C[C@@H](O)C[C@@H]1O [1-α-, 25-dihydroxy vitamin D3]	approximately 10 times	–	–	–	–	–	–	–	–	–	–	–
C=C1/C(=C\C=C2/CCC[C@]3(C)[C@@H]([C@H](C)CCCC(C)C)CC[C@@H]23)C[C@@H](O)C[C@@H]1O [1-α-hydroxy vitamin D3]	approximately 10 times	–	–	–	–	–	–	–	–	–	–	–
[Cl-].[Cl-].[Mg+2] [Mg, magnesium chloride]	–	87	233	19	2280	74	397	6652	411	444	190	6.20
